From patent publication EP0934745B1, “Use of androsterone derivatives for inhibiting DNA binding of ap-1 and airway smooth muscle proliferation” (CHARLOTTE-MECKLENBURG HOSPITAL doing business as Carolinas …, priority 1998, dated 1999)

Legend:
p21^ras = assay: Immunoblot of p21ras in membranes of cultured airway smooth muscle cells; assay type: cell-based, rat; settings: 10% FBS + 10 µM, 24 hours (Figure 6B)
Procedure: To determine if 16α-bromoepiandrosterone reduced cellular proliferation by interfering with mevalonic acid synthesis, cells were stimulated with FBS and grown in the presence or absence of 16α-BrEA, with or without addition of 6 mM DL-mevalonic acid lactone to growth medium. After 36 hours growth was measured by MTT reduction. To evaluate whether isoprenylation and membrane localization of Ras was impaired, confluent cells on 75-cm^2 Petri dishes were growth arrested for 24 hours in 0.5% FBS and DMEM with and without 16α-BrEA or DMSO vehicle. Some dishes were then stimulated 30 minutes with 10% FBS in DMEM. Cells were lysed, membranes were isolated and immunoblotting was performed as described below to determine if treatment with DHEA and 16α-BrEA depleted p21^ras.
To determine if DHEA or its analogs induced programmed cell death, confluent cultures in 6 well plastic plates were treated with 50 or 250 µM DHEA, 10 or 50 µM 16α-BrEA, or vehicle (25 µl DMSO). After 2 hours cells were washed twice with DPBS and scraped on ice into 1.5 ml microfuge tubes and centrifuged 250 g for 5 minutes at 4°C. […] The linear increase in absorbance at 340 nm was monitored at 25°C for 300 seconds. Activity was expressed as units/mg protein, where 1.0 unit will oxidase 1.0 µmole of G6P to 6-phospho-D-gluconate per min in the presence of NADP. Protein was measured using the BCA protein assay (Rockford, IL). […]

[1] = system: airway smooth muscle cells; assay: Cytotoxicity: lactate dehydrogenase activity in cell supernatants; assay type: cell-based, rat; settings: confluent cells incubated 24 hours; compared with DMSO vehicle (Figure 4B)
Procedure: To study the effect of DHEA and 16α-BrEA on activation of AP-1, a secondary response important in cellular growth and proliferation (Angel and Karin, (1991), supra) confluent monolayers of airway smooth muscle in 75-cm^2 Petri dishes were growth arrested for 24 hours in 0.5% FBS and DMEM and pretreated 2 hours with DHEA, 16α-BrEA or DMSO vehicle. Cells were then stimulated with 10% FBS in DMEM for 6 hours, nuclear protein was harvested, and electrophoretic mobility shift assays were performed as described below to determine if treatment with DHEA and 16α-BrEA impaired DNA binding of AP-1. Measurement of Cytotoxicity and Apoptosis. To assess for cytotoxicity, DHEA or 16α-BrEA were added to wells of airway smooth muscle cells previously grown to confluence in DMEM and 10% FBS. After 24 hours, media was microfuged 5 minutes and supernatant was assayed for lactate dehydrogenase activity using a commercially available assay (DG-1340K from Sigma). Cells were washed twice in DPBS and exposed to trypan blue dye (0.04% in Hanks' balanced salt solution). Cell counts were performed in five random fields using a 0.01-cm^2 ocular grid to quantitate the average number of damaged or dead cells that accumulated dye. […]

C[C@]12CC[C@H](O)C[C@@H]1CC[C@@H]1[C@@H]2CC[C@]2(C)C(=O)[C@H](Br)C[C@@H]12 [16α-BrEA, 16α-bromoepiandrosterone]
p21^ras in membranes of cultured airway smooth muscle cells (p21^ras): does not deplete p21^ras
LDH activity in supernatant [1]: does not increase LDH activity
